# Measurements from publication PMC11167047 (Cell Death Discovery, 2024).
# Key:
# Experiment in all cases: kinome screen (33PanQinase)
# Type in all cases: biochemical
# ROCK2 = biological target: T1, ROCK2 (Homo sapiens, UniProt O75116)
# T1 construct: purchased Reaction Biology Europe GmbH (formerly ProQinase)
# Method: (§1) The Kinome Screening was performed by Reaction Biology Europe GmbH (http://reactionbiology.com; Freiburg i. Br., Germany).
# MAPKAPK2 = biological target: T2, MAPKAPK2 (Homo sapiens, UniProt P49137)
# T2 construct: purchased Reaction Biology Europe GmbH (formerly ProQinase)
# Method: as §1
# MKK4 = biological target: T3, MKK4 (Homo sapiens, UniProt P45985)
# T3 construct: purchased Reaction Biology Europe GmbH (formerly ProQinase)
# T3 sequence (P45985 1-399): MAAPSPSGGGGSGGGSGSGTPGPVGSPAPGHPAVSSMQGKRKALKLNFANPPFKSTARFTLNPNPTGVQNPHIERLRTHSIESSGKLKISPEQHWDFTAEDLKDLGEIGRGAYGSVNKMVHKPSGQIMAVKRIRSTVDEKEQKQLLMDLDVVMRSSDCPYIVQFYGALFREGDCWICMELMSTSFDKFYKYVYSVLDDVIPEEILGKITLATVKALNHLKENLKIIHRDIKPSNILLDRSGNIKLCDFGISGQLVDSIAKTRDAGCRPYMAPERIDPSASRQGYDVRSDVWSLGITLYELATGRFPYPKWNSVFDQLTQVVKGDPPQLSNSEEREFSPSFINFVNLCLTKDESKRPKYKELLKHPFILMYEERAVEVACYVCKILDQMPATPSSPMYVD
# Method: as §1
# GSK3α = biological target: T4, GSK3α (Homo sapiens, UniProt P49840)
# T4 construct: purchased Reaction Biology Europe GmbH (formerly ProQinase)
# Method: as §1
# IRAK1 = biological target: T5, IRAK1 (Homo sapiens, UniProt P51617)
# T5 construct: purchased Reaction Biology Europe GmbH (formerly ProQinase)
# Method: as §1
# MAPKAPK5 = biological target: T6, MAPKAPK5 (Homo sapiens, UniProt Q8IW41)
# T6 construct: purchased Reaction Biology Europe GmbH (formerly ProQinase)
# Method: as §1
# IKKα = biological target: T7, IKKα (Homo sapiens, UniProt O15111)
# T7 construct: purchased Reaction Biology Europe GmbH (formerly ProQinase)
# T7 sequence (O15111 1-745): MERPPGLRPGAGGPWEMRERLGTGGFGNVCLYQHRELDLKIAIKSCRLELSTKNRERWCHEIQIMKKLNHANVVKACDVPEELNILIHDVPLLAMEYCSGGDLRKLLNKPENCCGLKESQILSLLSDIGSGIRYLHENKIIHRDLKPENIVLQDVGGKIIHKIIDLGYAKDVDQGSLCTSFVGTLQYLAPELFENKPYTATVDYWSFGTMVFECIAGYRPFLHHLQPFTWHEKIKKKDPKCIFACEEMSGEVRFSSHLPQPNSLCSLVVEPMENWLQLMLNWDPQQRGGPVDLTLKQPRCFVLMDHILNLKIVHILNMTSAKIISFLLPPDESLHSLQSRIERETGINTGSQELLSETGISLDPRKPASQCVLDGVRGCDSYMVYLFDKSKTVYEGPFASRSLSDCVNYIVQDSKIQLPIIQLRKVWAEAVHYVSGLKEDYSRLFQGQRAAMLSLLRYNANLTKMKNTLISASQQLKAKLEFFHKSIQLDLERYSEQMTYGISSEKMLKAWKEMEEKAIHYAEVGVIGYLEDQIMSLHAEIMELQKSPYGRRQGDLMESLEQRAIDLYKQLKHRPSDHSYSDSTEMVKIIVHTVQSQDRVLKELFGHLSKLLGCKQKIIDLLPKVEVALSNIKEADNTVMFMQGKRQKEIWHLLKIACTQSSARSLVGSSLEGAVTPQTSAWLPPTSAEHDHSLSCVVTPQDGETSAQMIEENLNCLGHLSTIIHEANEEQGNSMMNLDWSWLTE
# Method: as §1
# WEE1 = biological target: T8, WEE1 (Homo sapiens, UniProt P30291)
# T8 construct: purchased Reaction Biology Europe GmbH (formerly ProQinase)
# Method: as §1
# MAP3K11 = biological target: T9, MAP3K11 (Homo sapiens, UniProt Q16584)
# T9 construct: purchased Reaction Biology Europe GmbH (formerly ProQinase)
# Method: as §1
# JNK1 = biological target: T10, JNK1 (Homo sapiens, UniProt P45983)
# T10 construct: purchased Reaction Biology Europe GmbH (formerly ProQinase)
# Method: as §1
# ACVR2A = biological target: T11, ACVR2A (Homo sapiens, UniProt P27037)
# T11 construct: purchased Reaction Biology Europe GmbH (formerly ProQinase)
# Method: as §1
# PKCϴ = biological target: T12, PKCϴ (Homo sapiens, UniProt Q04759)
# T12 construct: purchased Reaction Biology Europe GmbH (formerly ProQinase)
# Method: as §1
# MEK5 = biological target: T13, MEK5 (Homo sapiens, UniProt Q13163)
# T13 construct: purchased Reaction Biology Europe GmbH (formerly ProQinase)
# T13 sequence (Q13163 1-448): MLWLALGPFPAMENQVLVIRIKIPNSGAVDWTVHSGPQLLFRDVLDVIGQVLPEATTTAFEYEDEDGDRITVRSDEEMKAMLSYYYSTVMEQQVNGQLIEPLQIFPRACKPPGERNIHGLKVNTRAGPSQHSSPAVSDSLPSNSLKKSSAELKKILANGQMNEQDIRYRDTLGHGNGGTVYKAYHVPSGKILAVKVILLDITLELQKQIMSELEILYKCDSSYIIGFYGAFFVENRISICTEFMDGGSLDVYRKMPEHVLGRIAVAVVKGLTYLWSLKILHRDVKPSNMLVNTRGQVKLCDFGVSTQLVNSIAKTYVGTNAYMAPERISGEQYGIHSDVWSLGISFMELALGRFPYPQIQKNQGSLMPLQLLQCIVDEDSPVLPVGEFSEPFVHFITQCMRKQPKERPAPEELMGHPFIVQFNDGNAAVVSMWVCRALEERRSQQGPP
# Method: as §1
# MEK1 = biological target: T14, MEK1 (Homo sapiens, UniProt Q02750)
# T14 construct: purchased Reaction Biology Europe GmbH (formerly ProQinase)
# Method: as §1
# CDK7/CycH/MAT1 = biological target: T15, CDK7/CycH/MAT1 (Homo sapiens, UniProt P50613)
# T15 construct: purchased Reaction Biology Europe GmbH (formerly ProQinase)
# Method: as §1
# MYLK = biological target: T16, MYLK (Homo sapiens, UniProt Q15746)
# T16 construct: purchased Reaction Biology Europe GmbH (formerly ProQinase)
# Method: as §1
# T14 sequence (Q02750 whole entry): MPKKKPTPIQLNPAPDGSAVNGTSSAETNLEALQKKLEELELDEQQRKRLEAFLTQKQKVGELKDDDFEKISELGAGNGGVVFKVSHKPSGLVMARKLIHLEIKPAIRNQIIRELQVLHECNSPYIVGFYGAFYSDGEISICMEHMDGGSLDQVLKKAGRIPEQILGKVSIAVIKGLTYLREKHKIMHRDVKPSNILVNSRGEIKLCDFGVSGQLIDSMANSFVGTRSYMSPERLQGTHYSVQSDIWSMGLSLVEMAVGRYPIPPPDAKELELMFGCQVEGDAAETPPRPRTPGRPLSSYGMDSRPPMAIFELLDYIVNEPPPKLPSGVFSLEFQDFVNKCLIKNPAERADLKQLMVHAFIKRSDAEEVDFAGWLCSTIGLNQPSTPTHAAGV
# T2 sequence (P49137 whole entry): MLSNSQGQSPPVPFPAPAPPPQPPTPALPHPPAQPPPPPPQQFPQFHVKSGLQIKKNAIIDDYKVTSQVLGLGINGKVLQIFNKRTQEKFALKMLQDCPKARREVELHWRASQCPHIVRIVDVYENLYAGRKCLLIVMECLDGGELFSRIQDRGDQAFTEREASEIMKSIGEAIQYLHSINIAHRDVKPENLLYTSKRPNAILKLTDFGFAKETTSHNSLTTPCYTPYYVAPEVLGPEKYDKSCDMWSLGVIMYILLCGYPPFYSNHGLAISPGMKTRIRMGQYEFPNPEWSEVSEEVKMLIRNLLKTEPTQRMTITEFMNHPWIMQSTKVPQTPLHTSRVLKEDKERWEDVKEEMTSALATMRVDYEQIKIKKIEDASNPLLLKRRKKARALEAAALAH
# T16 sequence (Q15746 whole entry): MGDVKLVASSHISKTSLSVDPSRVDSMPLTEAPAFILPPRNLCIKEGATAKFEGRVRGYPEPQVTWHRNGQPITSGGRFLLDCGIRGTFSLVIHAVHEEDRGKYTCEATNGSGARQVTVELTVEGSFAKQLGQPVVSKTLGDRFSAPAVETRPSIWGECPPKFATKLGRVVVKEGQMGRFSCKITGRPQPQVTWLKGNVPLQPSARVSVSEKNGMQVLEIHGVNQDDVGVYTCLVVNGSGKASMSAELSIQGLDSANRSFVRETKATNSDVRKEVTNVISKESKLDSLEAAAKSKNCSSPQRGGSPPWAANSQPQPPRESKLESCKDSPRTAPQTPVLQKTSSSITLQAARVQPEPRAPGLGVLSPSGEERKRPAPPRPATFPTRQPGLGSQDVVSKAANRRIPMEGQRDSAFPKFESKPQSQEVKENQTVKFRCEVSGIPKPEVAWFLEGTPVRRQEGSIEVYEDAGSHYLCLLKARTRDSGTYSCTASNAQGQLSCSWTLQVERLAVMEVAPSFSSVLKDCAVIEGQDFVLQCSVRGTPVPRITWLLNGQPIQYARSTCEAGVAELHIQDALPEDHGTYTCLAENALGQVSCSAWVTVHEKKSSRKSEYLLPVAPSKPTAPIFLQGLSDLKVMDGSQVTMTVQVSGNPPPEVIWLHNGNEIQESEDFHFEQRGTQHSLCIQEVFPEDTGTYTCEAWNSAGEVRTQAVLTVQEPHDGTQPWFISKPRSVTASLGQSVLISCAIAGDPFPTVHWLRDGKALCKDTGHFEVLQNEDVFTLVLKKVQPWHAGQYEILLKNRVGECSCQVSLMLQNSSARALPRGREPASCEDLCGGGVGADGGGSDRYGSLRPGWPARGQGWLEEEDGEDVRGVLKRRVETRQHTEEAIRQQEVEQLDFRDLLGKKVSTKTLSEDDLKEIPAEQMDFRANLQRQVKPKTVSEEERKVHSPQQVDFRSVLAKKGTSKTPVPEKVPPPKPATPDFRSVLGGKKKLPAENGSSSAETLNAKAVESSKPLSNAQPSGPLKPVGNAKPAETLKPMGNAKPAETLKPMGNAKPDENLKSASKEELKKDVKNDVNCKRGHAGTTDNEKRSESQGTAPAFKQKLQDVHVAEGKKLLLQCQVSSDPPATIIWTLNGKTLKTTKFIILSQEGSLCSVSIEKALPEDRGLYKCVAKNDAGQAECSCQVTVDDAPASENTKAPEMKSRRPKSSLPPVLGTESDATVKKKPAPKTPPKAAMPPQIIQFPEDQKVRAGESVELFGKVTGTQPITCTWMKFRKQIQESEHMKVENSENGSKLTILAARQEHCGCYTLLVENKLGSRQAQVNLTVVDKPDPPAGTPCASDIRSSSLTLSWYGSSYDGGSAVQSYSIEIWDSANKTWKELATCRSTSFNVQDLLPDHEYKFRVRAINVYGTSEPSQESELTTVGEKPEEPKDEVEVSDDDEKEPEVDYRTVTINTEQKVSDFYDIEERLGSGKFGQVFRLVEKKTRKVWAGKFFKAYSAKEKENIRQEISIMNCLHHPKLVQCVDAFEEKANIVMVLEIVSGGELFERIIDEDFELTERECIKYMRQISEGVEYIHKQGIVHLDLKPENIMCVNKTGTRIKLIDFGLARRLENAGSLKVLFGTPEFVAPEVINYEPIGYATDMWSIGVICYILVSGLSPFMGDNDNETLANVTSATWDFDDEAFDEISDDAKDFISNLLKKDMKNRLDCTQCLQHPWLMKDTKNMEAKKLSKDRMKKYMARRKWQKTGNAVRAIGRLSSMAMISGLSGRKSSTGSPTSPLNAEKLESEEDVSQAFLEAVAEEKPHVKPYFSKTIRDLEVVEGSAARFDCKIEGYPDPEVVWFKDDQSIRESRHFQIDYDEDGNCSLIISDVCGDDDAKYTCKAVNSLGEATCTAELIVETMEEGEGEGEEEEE
# T9 sequence (Q16584 whole entry): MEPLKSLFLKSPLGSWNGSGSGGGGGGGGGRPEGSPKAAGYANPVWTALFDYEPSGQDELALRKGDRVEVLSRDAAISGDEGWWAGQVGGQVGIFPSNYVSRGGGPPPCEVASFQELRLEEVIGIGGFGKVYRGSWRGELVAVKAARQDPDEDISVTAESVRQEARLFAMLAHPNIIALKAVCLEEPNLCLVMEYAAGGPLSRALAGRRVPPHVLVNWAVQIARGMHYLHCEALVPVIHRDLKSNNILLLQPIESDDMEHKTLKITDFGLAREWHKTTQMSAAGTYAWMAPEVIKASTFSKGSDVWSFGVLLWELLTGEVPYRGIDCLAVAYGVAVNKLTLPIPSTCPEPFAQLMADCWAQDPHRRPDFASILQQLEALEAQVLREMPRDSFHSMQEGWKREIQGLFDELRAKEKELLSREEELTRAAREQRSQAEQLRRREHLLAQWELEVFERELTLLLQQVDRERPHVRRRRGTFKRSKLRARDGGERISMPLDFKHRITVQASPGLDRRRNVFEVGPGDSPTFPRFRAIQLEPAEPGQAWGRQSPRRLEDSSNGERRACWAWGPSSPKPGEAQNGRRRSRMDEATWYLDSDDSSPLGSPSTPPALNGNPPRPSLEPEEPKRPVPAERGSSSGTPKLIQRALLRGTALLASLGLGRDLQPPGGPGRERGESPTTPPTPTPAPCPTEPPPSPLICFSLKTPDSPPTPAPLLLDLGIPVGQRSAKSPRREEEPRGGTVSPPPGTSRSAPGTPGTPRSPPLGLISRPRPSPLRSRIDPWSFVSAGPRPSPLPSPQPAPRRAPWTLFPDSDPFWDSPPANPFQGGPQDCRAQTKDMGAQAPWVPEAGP
# T5 sequence (P51617 whole entry): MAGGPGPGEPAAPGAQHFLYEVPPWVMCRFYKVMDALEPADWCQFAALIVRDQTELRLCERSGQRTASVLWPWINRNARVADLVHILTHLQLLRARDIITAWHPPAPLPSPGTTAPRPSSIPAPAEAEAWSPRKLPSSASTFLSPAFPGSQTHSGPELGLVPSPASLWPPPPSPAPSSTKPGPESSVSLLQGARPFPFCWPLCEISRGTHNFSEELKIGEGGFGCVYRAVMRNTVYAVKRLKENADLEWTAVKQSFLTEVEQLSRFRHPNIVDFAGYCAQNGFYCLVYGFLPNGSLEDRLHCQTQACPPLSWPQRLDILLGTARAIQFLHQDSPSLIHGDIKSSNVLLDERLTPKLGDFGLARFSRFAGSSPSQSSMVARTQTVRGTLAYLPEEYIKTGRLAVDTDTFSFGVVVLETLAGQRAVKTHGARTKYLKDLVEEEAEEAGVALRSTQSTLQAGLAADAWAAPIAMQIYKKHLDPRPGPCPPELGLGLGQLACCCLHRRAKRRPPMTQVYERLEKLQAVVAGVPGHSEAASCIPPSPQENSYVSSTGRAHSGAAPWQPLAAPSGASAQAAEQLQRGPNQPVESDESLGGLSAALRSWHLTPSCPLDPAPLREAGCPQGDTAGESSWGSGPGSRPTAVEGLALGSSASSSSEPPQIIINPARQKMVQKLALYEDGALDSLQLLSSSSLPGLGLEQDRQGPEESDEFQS
# T8 sequence (P30291 whole entry): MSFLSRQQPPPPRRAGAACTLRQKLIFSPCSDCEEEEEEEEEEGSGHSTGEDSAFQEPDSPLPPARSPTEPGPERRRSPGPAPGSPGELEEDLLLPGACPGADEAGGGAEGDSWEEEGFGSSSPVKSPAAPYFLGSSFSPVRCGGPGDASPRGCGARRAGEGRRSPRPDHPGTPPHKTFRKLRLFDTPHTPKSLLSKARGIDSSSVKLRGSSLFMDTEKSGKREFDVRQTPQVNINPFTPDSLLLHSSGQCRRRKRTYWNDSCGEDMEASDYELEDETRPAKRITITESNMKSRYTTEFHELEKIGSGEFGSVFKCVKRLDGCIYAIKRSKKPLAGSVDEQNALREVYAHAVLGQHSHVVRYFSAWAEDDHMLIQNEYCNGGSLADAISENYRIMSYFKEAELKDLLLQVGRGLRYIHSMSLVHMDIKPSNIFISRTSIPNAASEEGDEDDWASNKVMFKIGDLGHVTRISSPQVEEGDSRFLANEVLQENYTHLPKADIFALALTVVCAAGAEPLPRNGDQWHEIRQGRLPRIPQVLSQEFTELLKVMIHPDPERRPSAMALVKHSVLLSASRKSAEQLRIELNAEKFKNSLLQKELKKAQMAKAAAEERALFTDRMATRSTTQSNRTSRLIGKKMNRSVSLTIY
compound,measurement,setting,value
COc1ccnc2[nH]cc(-c3cc(N)nc(N)c3)c12 [meriolin 16],residual kinase activity,ROCK2; 0.03 µM,12 % of control
same,residual kinase activity,ROCK2; 0.3 µM,1 % of control
same,residual kinase activity,MAPKAPK2; 0.3 µM,95 % of control
same,residual kinase activity,MKK4; 0.03 µM,86 % of control
same,residual kinase activity,MKK4; 0.3 µM,66 % of control
same,residual kinase activity,GSK3α; 0.03 µM,99 % of control
same,residual kinase activity,GSK3α; 0.3 µM,93 % of control
same,residual kinase activity,IRAK1; 0.03 µM,95 % of control
same,residual kinase activity,IRAK1; 0.3 µM,76 % of control
same,residual kinase activity,MAPKAPK5; 0.3 µM,85 % of control
same,residual kinase activity,IKKα; 0.03 µM,27 % of control
same,residual kinase activity,IKKα; 0.3 µM,16 % of control
same,residual kinase activity,WEE1; 0.03 µM,80 % of control
same,residual kinase activity,WEE1; 0.3 µM,99 % of control
same,residual kinase activity,MAP3K11; 0.03 µM,100 % of control
same,residual kinase activity,MAP3K11; 0.3 µM,74 % of control
same,residual kinase activity,JNK1; 0.03 µM,102 % of control
same,residual kinase activity,JNK1; 0.3 µM,95 % of control
same,residual kinase activity,ACVR2A; 0.03 µM,103 % of control
same,residual kinase activity,ACVR2A; 0.3 µM,103 % of control
same,residual kinase activity,PKCϴ; 0.03 µM,40 % of control
same,residual kinase activity,PKCϴ; 0.3 µM,7 % of control
same,residual kinase activity,MEK5; 0.03 µM,35 % of control
same,residual kinase activity,MEK5; 0.3 µM,31 % of control
same,residual kinase activity,MEK1; 0.03 µM,108 % of control
same,residual kinase activity,MEK1; 0.3 µM,102 % of control
same,residual kinase activity,CDK7/CycH/MAT1; 0.03 µM,44 % of control
same,residual kinase activity,CDK7/CycH/MAT1; 0.3 µM,6 % of control
same,residual kinase activity,MYLK; 0.03 µM,103 % of control
same,residual kinase activity,MYLK; 0.3 µM,71 % of control
c1ccc(CNc2cc(-c3c[nH]c4ncccc34)ccn2)cc1 [meriolin 36],residual kinase activity,ROCK2; 0.3 µM,1 % of control
same,residual kinase activity,ROCK2; 3 µM,0 % of control
same,residual kinase activity,MAPKAPK2; 0.3 µM,130 % of control
same,residual kinase activity,MAPKAPK2; 3 µM,87 % of control
same,residual kinase activity,MKK4; 0.3 µM,45 % of control
same,residual kinase activity,MKK4; 3 µM,9 % of control
same,residual kinase activity,GSK3α; 0.3 µM,41 % of control
same,residual kinase activity,GSK3α; 3 µM,7 % of control
same,residual kinase activity,IRAK1; 0.3 µM,49 % of control
same,residual kinase activity,IRAK1; 3 µM,9 % of control
same,residual kinase activity,MAPKAPK5; 3 µM,69 % of control
same,residual kinase activity,IKKα; 0.3 µM,37 % of control
same,residual kinase activity,IKKα; 3 µM,13 % of control
same,residual kinase activity,WEE1; 0.3 µM,72 % of control
same,residual kinase activity,WEE1; 3 µM,37 % of control
same,residual kinase activity,MAP3K11; 0.3 µM,45 % of control
same,residual kinase activity,MAP3K11; 3 µM,4 % of control
same,residual kinase activity,JNK1; 0.3 µM,74 % of control
same,residual kinase activity,JNK1; 3 µM,23 % of control
same,residual kinase activity,ACVR2A; 0.3 µM,94 % of control
same,residual kinase activity,ACVR2A; 3 µM,47 % of control
same,residual kinase activity,PKCϴ; 0.3 µM,2 % of control
same,residual kinase activity,PKCϴ; 3 µM,1 % of control
same,residual kinase activity,MEK5; 0.3 µM,30 % of control
same,residual kinase activity,MEK5; 3 µM,12 % of control
same,residual kinase activity,MEK1; 0.3 µM,35 % of control
same,residual kinase activity,MEK1; 3 µM,6 % of control
same,residual kinase activity,CDK7/CycH/MAT1; 0.3 µM,7 % of control
same,residual kinase activity,CDK7/CycH/MAT1; 3 µM,2 % of control
same,residual kinase activity,MYLK; 0.3 µM,62 % of control
same,residual kinase activity,MYLK; 3 µM,25 % of control
